The record followed here is patent US20260183393A1, “IMMUNOSUPPRESSANT-RESISTANT MODIFIED ALLOGENEIC MODIFIED IMMUNE CELLS AND METHODS FOR USE THEREOF” (Beam Therapeutics Inc., priority 2023, published 2026).

In the experiment the test system is alloreactive T cells. The experiment is described as follows: Mixed leukocyte reaction: priming and proliferation of alloreactive T cells with immunosuppressants. The class given is cell-based, human. Conditions: for proliferation of alloreactive T cells: CellTrace Violet-labeled T cells with PBMCs from HLA disparate donors, RPM 10^−2 to 10^−4 mg mL^−1, TAC 10^0 to 10^−2 mg mL^−1, relative to VEH; for proliferation of the T cells: rapamycin 0.001 μg/mL or tacrolimus 0.1 μg/mL, HLA-mismatched PBMCs 1:1, day 7, CellTrace dilution. On the procedure:
Purified primary human T cells (effector cells) from a donor (Donor #1) were labeled with CellTrace™ dye and co-cultured at a 1:1 effector-to-target cell ratio with HLA-mismatched peripheral blood mononuclear cells (PBMCs) from another donor (Donor #2) that were pretreated with mitomycin C to inhibit their growth (mitomycin C inhibits cell growth). The cells were co-cultured in the presence of the immunosuppressant rapamycin (0.001 μg/mL) or tacrolimus (0.1 μg/mL) or in the presence of dimethylsulfoxide (DMSO) in place of any immunosuppressant. The immunosuppressant or DMSO was re-administered to the cultures every 48 hours. On day 7, proliferation was measured as dilution of the CellTrace™ dye assessed using flow cytometry. The numbers at the lower-left of each plot indicate the percent of total cells counted falling within the indicated region.
First, human leukocyte antigen (HLA) mismatched peripheral blood mononuclear cells (PBMCs) from a donor were co-cultured in the presence and absence of an immunosuppressant agents with T cells from a different donor that were labeled using a CellTrace dye for measuring cell proliferation. The peripheral blood mononuclear cells (PBMC) cells were treated with mitomycin C prior to being co-cultured to prevent proliferation of the PBMC cells.
It was first determined if immunosuppressants mitigate the in vitro priming of alloreactive T cells. To do so, peripheral blood mononuclear cells and CellTrace Violet-labeled T cells from HLA disparate donors were cultured in the presence of rapamycin (RPM), tacrolimus (TAC) or vehicle (VEH) control. […] Next, it was tested whether immunosuppressants alleviated in vivo T cell-driven rejection of allogeneic HLA-I CAR-T cells. Five cohorts of human immune system (HIS) mice derived from unrelated human donors were injected daily with RPM, TAC, or VEH for 2 weeks, and at 1-day post-treatment initiation all mice were co-infused with an equal amount of allogeneic HLA^+ and HLA-deficient CAR-T cells (FIG. 16A). Cohorts #3 and #4 also received syngeneic human immune system (HIS) mouse-derived CAR-T cells to control for autologous T cell persistence. […]
For the study described in FIGS. 21A to 21C, CellTrace Violet (Thermo Fisher Scientific) CD3^+ T cells (effectors) and CD3-depleted PBMCs (targets) from HLA disparate donors were cultured in triplicate at a 1:1 ratio in complete medium supplemented with 300 U mL^−1 IL-2. […] Frequency of dividing effector CD8^+ and CD4^+ T cells was measured at day 5 and 7 post-stimulation by flow cytometry.

Take `CO[C@H]1C[C@@H]2CC[C@@H](C)[C@@](O)(O2)C(=O)C(=O)N2CCCC[C@H]2C(=O)O[C@H]([C@H](C)C[C@@H]2CC[C@@H](O)[C@H](OC)C2)CC(=O)[C@H](C)/C=C(\C)[C@@H](O)[C@@H](OC)C(=O)[C@H](C)C[C@H](C)/C=C/C=C/C=C/1C` [rapamycin, Rapamycin]: the “proliferation of alloreactive T cells” value is listed as “severely attenuated the proliferation of alloreactive T cells” and the “proliferation of the T cells” value is “hindered proliferation of the T cells”.

Turning to `C=CC[C@@H]1/C=C(\C)C[C@H](C)C[C@H](OC)[C@H]2O[C@@](O)(C(=O)C(=O)N3CCCC[C@H]3C(=O)O[C@H](/C(C)=C/[C@@H]3CC[C@@H](O)[C@H](OC)C3)[C@H](C)[C@@H](O)CC1=O)[C@H](C)C[C@@H]2OC` [tacrolimus, Tacrolimus], the “proliferation of alloreactive T cells” value is “severely attenuated the proliferation of alloreactive T cells” and the “proliferation of the T cells” value is reported as “hindered proliferation of the T cells”.
